These results are taken from patent US4451483A, “2,3,4-Trinor-m-inter-phenylene-prostaglandin derivatives and compositions and method for inhibiting blood platelet aggregation” (Chinoin Gyogyszer es Vegyeszeti Termekek Gyara Rt., priority 1981, dated 1984).

Structures can show the parent of a compound that is named as a salt. Where two headings read alike, the source gives them in different places.

Data set [1] concerns human PRP. Briefly: Inhibition of ADP-induced aggregation in human platelet rich plasma (PRP), method of Born. In kind it is cell-based. The settings on record: aggregation provoked by 4 μmol/ml of ADP, read-out: IC50 on human PRP (concentration required to attain 50% inhibiting effect). The text has this: (§1) The main pharmacological effect of the new compounds according to the invention is that, like PGI2, they inhibit blood platelet aggregation and are able to dissolve the already existing agglomerates. The aggregation inhibiting effects of the new compounds were examined on human and guinea pig platelet rich plasma (PRP) according to the method of Born. Aggregation was provoked by adding 4 μmol/ml of ADP to the plasma, and then the prostacycline concentrations required to attain 50% or 100% inhibiting effect (IC50 or IC100) were determined.

The test system of data set [2] is guinea pig PRP. The data set is described as follows: Inhibition of ADP-induced aggregation in guinea pig platelet rich plasma (PRP), method of Born. In kind it is cell-based. The conditions noted are these: Cavia porcellus, aggregation provoked by 4 μmol/ml of ADP, read-out: IC100 on guinea pig PRP (concentration required to attain 100% inhibiting effect).
Text: as §1

For data set [3] the following is noted: sodium salt: storage, free acid: physiological conditions, hydrolysis into 6-keto-PGF1α, cited from earlier work.
Data set [4] in a line: Biological half-life in aqueous medium (period within which the biological activity drops to the half). The conditions noted are these: aqueous medium at pH=7. In kind it is physicochemical. On the procedure:
The biological half-life (i.e. the period within which the biological activity of the substance drops to the half) is 3 minutes for PGI2 an an aqueous medium at pH=7, and about 7 days for the new compounds according to the invention.

For `CCCCCC[C@H](O)/C=C/[C@@H]1[C@H]2C/C(=C/c3cccc(C(=O)O)c3)O[C@H]2C[C@H]1O` [5(Z)-2,3,4-Trinor-1,5-inter-m-phenylene-20-methyl-PGI2 sodium salt], the IC50 in data set [1] was 12.5 ng/mL. In data set [2], the IC100 was determined as 0.014 µg/mL.

Turning to `CCCCC[C@H](O)/C=C/[C@@H]1[C@H]2C/C(=C/CCCC(=O)O)O[C@H]2C[C@H]1O` [PGI2 sodium salt], the IC50 in data set [1] stood at 2 ng/mL. Also, in data set [2], the IC100 came to 0.00175 µg/mL. For the same compound, in data set [3] (listed as sodium salt of prostacycline), the “stability of prostacycline sodium salt / free acid” value is listed as “very stable, highly storable compound”.

The compound `CCCCC[C@H](O)/C=C/[C@@H]1[C@H]2C/C(=C/CCCC(=O)O)O[C@H]2C[C@H]1O` [PGI2] displayed a half-life in data set [4] of 3 min. Moreover, the “stability of prostacycline sodium salt / free acid” value in data set [3] (listed as free PGI2 acid) was “rapidly hydrolyzes into 6-keto-PGF1α”.

As a reminder, the half-life is how long it takes for the measured level to halve. Low readings indicate fast loss, high ones slow loss.
